Test results from patent publication US20260053932A1, “COMPOUNDS AND METHODS FOR THE TARGETED DEGRADATION OF ANDROGEN RECEPTOR AND ASSOCIATED METHODS OF USE” (Arvinas Operations, Inc., priority 2020, published 2026).
Like-named read-outs stand apart in the source and are kept apart here.

Tested on: androgen receptor (AR) in LNCaP and/or VCaP cells
Test: Androgen Receptor ELISA assay (AR degradation)
Assay type: cell-based
In short: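 VCaP cells grown ≥3 days, then treated 5 h with compound in media containing 1 nM R1881 (10× stock). Cells lysed and AR quantified by sandwich ELISA (mouse AR detection Ab, HRP anti-mouse, TMB). DC50 and Dmax derived from AR degradation.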

[1] = degradation of AR ELISA in LNCaP and/or VCaP cells, Table 2C, read-out: DC50 Code*
[2] = degradation of AR ELISA in LNCaP and/or VCaP cells, read-out: DC50 Code*
[3] = LNCaP and/or VCaP cells, 5 hours incubation, media with R1881, read-out: DC50 Code* (degradation of AR ELISA)

| Structure (SMILES) | DC50 [3] | further results |
| --- | --- | --- |
| COCCN(CC1CCN(c2nc(C)c(C(=O)N[C@H]3C(C)(C)[C@H](Oc4ccc(C#N)c(OC)c4)C3(C)C)c(C)n2)CC1)[C@H]1C[C@H](Oc2cc(OC)c3c(c2)C(=O)N(C2CCC(=O)NC2=O)C3=O)C1 (mixture of isomers) [compound 232, rac-N-((1r,3r)-3-(4-cyano-3-methoxyphenoxy)-2,2,4,4-tetramethylcyclobutyl)-2-(4-((((1r,3r)-3-((2-(2,6-dioxopiperidin-3-yl)-7-methoxy-1,3-dioxoisoindolin-5-yl)oxy)cyclobutyl)(2-methoxyethyl)amino)methyl)piperidin-1-yl)-4,6-dimethylpyrimidine-5-carboxamide] | – | DC50 [1]: < 1 nM |
| Cc1cc(O[C@H]2C(C)(C)[C@H](NC(=O)c3cnc(N4CCC5(CC4)CN([C@H]4C[C@H](Oc6ccc7c(c6)C(=O)N(C6CCC(=O)NC6=O)C7=O)C4)CCO5)cn3)C2(C)C)cc(C)c1C#N (mixture of isomers) [compound 236, rac-N-((1r,3r)-3-(4-cyano-3,5-dimethylphenoxy)-2,2,4,4-tetramethylcyclobutyl)-5-(4-((1r,3r)-3-((2-(2,6-dioxopiperidin-3-yl)-1,3-dioxoisoindolin-5-yl)oxy)cyclobutyl)-1-oxa-4,9-diazaspiro[5.5]undecan-9-yl)pyrazine-2-carboxamide] | – | DC50 [1]: < 1 nM |
| CCOc1cc(O[C@H]2C[C@H](N(CC3CCN(c4cnc(C(=O)N[C@H]5C(C)(C)[C@H](Oc6cc(C)c(C#N)c(C)c6)C5(C)C)cn4)CC3)C(C)C)C2)cc2c1C(=O)N(C1CCC(=O)NC1=O)C2=O (mixture of isomers) [compound 238, rac-N-((1r,3r)-3-(4-cyano-3,5-dimethylphenoxy)-2,2,4,4-tetramethylcyclobutyl)-5-(4-((((1r,3r)-3-((2-(2,6-dioxopiperidin-3-yl)-7-ethoxy-1,3-dioxoisoindolin-5-yl)oxy)cyclobutyl) (isopropyl)amino)methyl)piperidin-1-yl)pyrazine-2-carboxamide] | – | DC50 [1]: 1 to 10 nM |
| COCCN(CC1CCN(c2nc(C)c(C(=O)N[C@H]3C(C)(C)[C@H](Oc4ccc(C#N)c(OC)c4)C3(C)C)c(C)n2)CC1)[C@H]1C[C@H](Oc2ccc3c(c2)C(=O)N(C2CCC(=O)NC2=O)C3=O)C1 (mixture of isomers) [compound 240, rac-N-((1r,3r)-3-(4-cyano-3-methoxyphenoxy)-2,2,4,4-tetramethylcyclobutyl)-2-(4-((((1r,3r)-3-((2-(2,6-dioxopiperidin-3-yl)-1,3-dioxoisoindolin-5-yl)oxy)cyclobutyl)(2-methoxyethyl)amino)methyl)piperidin-1-yl)-4,6-dimethylpyrimidine-5-carboxamide] | – | DC50 [2]: 1 to 10 nM |
| CC1(C)[C@H](NC(=O)c2ccc(N3CCC(CN4CCN(c5ccc6c(c5)C(=O)N(C5(C#N)CCC(=O)NC5=O)C6)CC4)CC3)cc2)C(C)(C)[C@H]1Oc1ccc(C#N)c(Cl)c1 (mixture of isomers) [compound 241, rac-N-((1r,3r)-3-(3-chloro-4-cyanophenoxy)-2,2,4,4-tetramethylcyclobutyl)-4-(4-((4-(2-(3-cyano-2,6-dioxopiperidin-3-yl)-3-oxoisoindolin-5-yl)piperazin-1-yl)methyl)piperidin-1-yl)benzamide] | – | DC50 [2]: 1 to 10 nM |
| COc1cc(O[C@H]2C(C)(C)[C@H](NC(=O)c3cnc(N4CCC(CN(CC[S+]([O-])CC5(C)COC5)[C@H]5C[C@H](Oc6ccc7c(c6)C(=O)N(C6CCC(=O)NC6=O)C7=O)C5)CC4)cn3)C2(C)C)ccc1C#N (mixture of isomers) [compound 243, rac-N-((1r,3r)-3-(4-cyano-3-methoxyphenoxy)-2,2,4,4-tetramethylcyclobutyl)-5-(4-((((1r,3r)-3-((2-(2,6-dioxopiperidin-3-yl)-1,3-dioxoisoindolin-5-yl)oxy)cyclobutyl)(2-(((3-methyloxetan-3-yl)methyl)sulfinyl)ethyl)amino)methyl)piperidin-1-yl)pyrazine-2-carboxamide] | – | DC50 [2]: 1 to 10 nM |
| Cc1cc(O[C@H]2C(C)(C)[C@H](NC(=O)c3cnc(N4CCC(CN(C(C)C)[C@H]5C[C@H](Oc6ccc7c(c6)C(=O)N(C6CCC(=O)N(COP(=O)(O)OCOC(=O)OC(C)C)C6=O)C7=O)C5)CC4)cn3)C2(C)C)cc(C)c1C#N (mixture of isomers) [compound 247, rac-((((3-(5-((1r,3r)-3-(((1-(5-(((1r,3r)-3-(4-cyano-3,5-dimethylphenoxy)-2,2,4,4-tetramethylcyclobutyl)carbamoyl)pyrazin-2-yl)piperidin-4-yl)methyl)(isopropyl)amino)cyclobutoxy)-1,3-dioxoisoindolin-2-yl)-2,6-dioxopiperidin-1-yl)methoxy)(hydroxy)phosphoryl)oxy)methyl isopropyl carbonate] | – | DC50 [2]: > 100 nM |
| COc1cc(O[C@H]2C[C@H](N(CC3CCN(c4ncc(C(=O)NC5CC6(C5)CC(Oc5cc(C)c(C#N)c(C)c5)C6)cn4)CC3)C(C)C)C2)cc2c1C(=O)N(C1CCC(=O)NC1=O)C2=O (stereo partly shown) [Compound 1, N-(6-(4-cyano-3,5-dimethylphenoxy)spiro [3.3]heptan-2-yl)-2-(4-((((1r,3r)-3-((2-(2,6-dioxopiperidin-3-yl)-7-methoxy-1,3-dioxoisoindolin-5-yl)oxy)cyclobutyl) (isopropyl)amino)methyl)piperidin-1-yl)pyrimidine-5-carboxamide] | 1 to 10 nM | – |
| COc1cc(O[C@H]2C[C@H](N(CC3CCN(c4ncc(C(=O)NC5CC6CC(Oc7cc(C)c(C#N)c(C)c7)CC6C5)cn4)CC3)C(C)C)C2)cc2c1C(=O)N(C1CCC(=O)NC1=O)C2=O (stereo partly shown) [Compound 2, N-(5-(4-cyano-3,5-dimethylphenoxy)octahydropentalen-2-yl)-2-(4-((((1r,3r)-3-((2-(2,6-dioxopiperidin-3-yl)-7-methoxy-1,3-dioxoisoindolin-5-yl)oxy)cyclobutyl) (isopropyl)amino)methyl)piperidin-1-yl)pyrimidine-5-carboxamide] | > 100 nM | – |
| COc1cc(O[C@H]2C[C@H](N(CC3CCN(c4ncc(C(=O)NC5CC6CN(Cc7cc(C)c(C#N)c(C)c7)CC6C5)cn4)CC3)C(C)C)C2)cc2c1C(=O)N(C1CCC(=O)NC1=O)C2=O (stereo partly shown) [Compound 3, N-(2-(4-cyano-3,5-dimethylbenzyl)octahydrocyclopenta [c]pyrrol-5-yl)-2-(4-((((1r,3r)-3-((2-(2,6-dioxopiperidin-3-yl)-7-methoxy-1,3-dioxoisoindolin-5-yl)oxy)cyclobutyl) (isopropyl)amino)methyl)piperidin-1-yl)pyrimidine-5-carboxamide] | > 100 nM | – |
| COc1cc(O[C@H]2C[C@H](N(CC3CCN(c4ncc(C(=O)N[C@@H]5CC[C@H](Oc6cc(C)c(C#N)c(C)c6)C5)cn4)CC3)C(C)C)C2)cc2c1C(=O)N(C1CCC(=O)NC1=O)C2=O (stereo partly drawn) [Compound 4, N-((1R,3S)-3-(4-cyano-3,5-dimethylphenoxy)cyclopentyl)-2-(4-((((1r,3R)-3-((2-(2,6-dioxopiperidin-3-yl)-7-methoxy-1,3-dioxoisoindolin-5-yl)oxy)cyclobutyl) (isopropyl)amino)methyl)piperidin-1-yl)pyrimidine-5-carboxamide] | > 100 nM | – |
| COc1cc(O[C@H]2C[C@H](N(CC3CCN(c4ncc(C(=O)N[C@H]5CC[C@H](Oc6cc(C)c(C#N)c(C)c6)C5)cn4)CC3)C(C)C)C2)cc2c1C(=O)N(C1CCC(=O)NC1=O)C2=O (stereo partly drawn) [Compound 5, N-((1S,3S)-3-(4-cyano-3,5-dimethylphenoxy)cyclopentyl)-2-(4-((((1r,3S)-3-((2-(2,6-dioxopiperidin-3-yl)-7-methoxy-1,3-dioxoisoindolin-5-yl)oxy)cyclobutyl) (isopropyl)amino)methyl)piperidin-1-yl)pyrimidine-5-carboxamide] | > 100 nM | – |
| COc1cc(O[C@H]2CC[C@@H](NC(=O)c3cnc(N4CCC(CN(C(C)C)[C@H]5C[C@H](Oc6ccc7c(c6)C(=O)N(C6CCC(=O)NC6=O)C7=O)C5)CC4)cn3)C2)ccc1C#N (stereo partly drawn) [Compound 6, N-((1R,3S)-3-(4-cyano-3-methoxyphenoxy)cyclopentyl)-5-(4-((((1r,3R)-3-((2-(2,6-dioxopiperidin-3-yl)-1,3-dioxoisoindolin-5-yl)oxy)cyclobutyl) (isopropyl)amino)methyl)piperidin-1-yl)pyrazine-2-carboxamide] | > 100 nM | – |
| COc1cc(O[C@H]2CC[C@H](NC(=O)c3cnc(N4CCC(CN(C(C)C)[C@H]5C[C@H](Oc6ccc7c(c6)C(=O)N(C6CCC(=O)NC6=O)C7=O)C5)CC4)cn3)C2)ccc1C#N (stereo partly drawn) [Compound 7, N-((1S,3S)-3-(4-cyano-3-methoxyphenoxy)cyclopentyl)-5-(4-((((1r,3S)-3-((2-(2,6-dioxopiperidin-3-yl)-1,3-dioxoisoindolin-5-yl)oxy)cyclobutyl) (isopropyl)amino)methyl)piperidin-1-yl)pyrazine-2-carboxamide] | > 100 nM | – |
| COc1cc(O[C@H]2C[C@H](N(CC3CCN(c4ncc(C(=O)N[C@@H]5CC[C@@H](Oc6cc(C)c(C#N)c(C)c6)C5)cn4)CC3)C(C)C)C2)cc2c1C(=O)N(C1CCC(=O)NC1=O)C2=O (stereo partly drawn) [Compound 8, N-((1R,3R)-3-(4-cyano-3,5-dimethylphenoxy)cyclopentyl)-2-(4-((((1r,3R)-3-((2-(2,6-dioxopiperidin-3-yl)-7-methoxy-1,3-dioxoisoindolin-5-yl)oxy)cyclobutyl) (isopropyl)amino)methyl)piperidin-1-yl)pyrimidine-5-carboxamide] | > 100 nM | – |
| COc1cc(O[C@H]2C[C@H](N(CC3CCN(c4ncc(C(=O)N[C@H]5CC[C@@H](Oc6cc(C)c(C#N)c(C)c6)C5)cn4)CC3)C(C)C)C2)cc2c1C(=O)N(C1CCC(=O)NC1=O)C2=O (stereo partly drawn) [Compound 9, N-((1S,3R)-3-(4-cyano-3,5-dimethylphenoxy)cyclopentyl)-2-(4-((((1r,3S)-3-((2-(2,6-dioxopiperidin-3-yl)-7-methoxy-1,3-dioxoisoindolin-5-yl)oxy)cyclobutyl) (isopropyl)amino)methyl)piperidin-1-yl)pyrimidine-5-carboxamide] | > 100 nM | – |
